# Measurements reported in ChEMBL document CHEMBL1135375, “Synthesis and biological activities of YkFA analogues: effects of position 4 substitutions and altered ring size on in vitro opioid activity” (Bioorg Med Chem Lett, 2002).
# Tests used:
# [1] = tested on: Opioid receptors; mu & delta; test: Selectivity ratio against mu opioid receptor to that of delta opioid receptor was determined
# Mu-type opioid receptor = Mu-type opioid receptor (Cavia porcellus, UniProt P97266); test: Concentration required for 50% inhibition of electrically induced contraction of the guinea pig ileum mediated through mu opioid receptor; assay type: functional, tissue-based
# [2] = target: Delta-type opioid receptor (Mus musculus, UniProt P32300); test: Concentration required for 50% inhibition of electrically induced contraction of the mouse vas deferens mediated through delta opioid receptor; assay type: functional
# Delta-type opioid receptor, sequence (P32300 whole entry): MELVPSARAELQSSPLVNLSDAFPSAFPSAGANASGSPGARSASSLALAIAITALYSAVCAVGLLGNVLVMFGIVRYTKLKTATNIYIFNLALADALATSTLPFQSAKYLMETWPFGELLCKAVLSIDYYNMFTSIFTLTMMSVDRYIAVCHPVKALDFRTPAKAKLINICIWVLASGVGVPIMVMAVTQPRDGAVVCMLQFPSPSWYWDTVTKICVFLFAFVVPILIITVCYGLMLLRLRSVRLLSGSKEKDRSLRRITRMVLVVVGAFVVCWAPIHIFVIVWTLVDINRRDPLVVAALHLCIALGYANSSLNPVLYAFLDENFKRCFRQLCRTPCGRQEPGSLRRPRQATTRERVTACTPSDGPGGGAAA
# Mu-type opioid receptor, sequence (P97266 whole entry): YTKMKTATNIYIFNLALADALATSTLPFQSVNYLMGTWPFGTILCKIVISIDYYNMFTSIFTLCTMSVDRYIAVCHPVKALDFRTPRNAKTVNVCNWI
SMILES,Ratio [1],IC50 (Mu-type opioid receptor) [nM],IC50 [2] [nM]
C[C@H]1NC(=O)[C@H](Cc2ccccc2)NC(=O)[C@H](CCCCN)N(C(=O)[C@@H](N)Cc2ccc(O)cc2)C1=O,4.9,,
CC[C@H](C)[C@@H]1NC(=O)[C@H](Cc2ccccc2)NC(=O)[C@@H](CCCCN)N(C(=O)[C@@H](N)Cc2ccc(O)cc2)C1=O,,1.1,6.3
NCCCC[C@@H]1C(=O)N[C@@H](Cc2ccccc2)C(=O)N[C@@H](CC(=O)O)C(=O)N1C(=O)[C@@H](N)Cc1ccc(O)cc1,,78.8,73.8
CC[C@@H](C)[C@H]1NC(=O)[C@H](Cc2ccccc2)NC(=O)[C@H](CCCCN)N(C(=O)[C@@H](N)Cc2ccc(O)cc2)C1=O,6,,
CC(C)[C@@H]1NC(=O)[C@H](Cc2ccccc2)NC(=O)[C@@H](CCCCN)N(C(=O)[C@@H](N)Cc2ccc(O)cc2)C1=O,,0.2,0.44
NCCCC[C@H]1C(=O)N[C@@H](Cc2ccccc2)C(=O)N[C@H](CC(=O)O)C(=O)N1C(=O)[C@@H](N)Cc1ccc(O)cc1,0.94,,
C[C@@H]1NC(=O)[C@H](Cc2ccccc2)NC(=O)[C@@H](CCN)N(C(=O)[C@@H](N)Cc2ccc(O)cc2)C1=O,,3.5,40
C[C@@H]1NC(=O)[C@H](Cc2ccccc2)NC(=O)[C@@H](CCCCN)N(C(=O)[C@@H](N)Cc2ccc(O)cc2)C1=O,,0.11,0.54
C[C@H]1NC[C@H](Cc2ccccc2)NC(=O)[C@H](CCN)N(C(=O)[C@@H](N)Cc2ccc(O)cc2)C1=O,12,21.4,252
CC(C)C[C@H]1NC(=O)[C@H](Cc2ccccc2)NC(=O)[C@H](CCCCN)N(C(=O)[C@@H](N)Cc2ccc(O)cc2)C1=O,4.5,,
C[C@H]1NC(=O)[C@H](Cc2ccccc2)NC(=O)[C@H](CCN)N(C(=O)[C@@H](N)Cc2ccc(O)cc2)C1=O,12,,
CC(C)[C@H]1NC(=O)[C@H](Cc2ccccc2)NC(=O)[C@H](CCCCN)N(C(=O)[C@@H](N)Cc2ccc(O)cc2)C1=O,2.2,,
CC(C)C[C@@H]1NC(=O)[C@H](Cc2ccccc2)NC(=O)[C@@H](CCCCN)N(C(=O)[C@@H](N)Cc2ccc(O)cc2)C1=O,,1.4,6.2
